Results as given in the NIST ThermoML archive (doi:10.1016/j.jct.2015.07.028).

Assay: molar heat capacity at saturation pressure
Conditions: Small (less than 1 g) adiabatic calorimetry

C=CC(C)(C)O [2-methyl-3-buten-2-ol]
molar heat capacity [J/K/mol]
Conditions | Crystal 1 | Crystal 2
5 K | – | 0.3244
5.363 K | – | 0.4026
5.571 K | – | 0.4523
5.832 K | – | 0.524
6.097 K | – | 0.6053
6.395 K | – | 0.7063
6.727 K | – | 0.8287
7.065 K | – | 0.9656
7.409 K | – | 1.117
7.759 K | – | 1.284
8.114 K | – | 1.466
8.474 K | – | 1.662
8.837 K | – | 1.874
9.202 K | – | 2.099
9.571 K | – | 2.338
9.942 K | – | 2.587
10 K | – | 2.631
10.42 K | – | 2.931
11.01 K | – | 3.375
11.6 K | – | 3.843
12.19 K | – | 4.339
12.79 K | – | 4.858
13.39 K | – | 5.395
14 K | – | 5.954
14.61 K | – | 6.523
15 K | – | 6.921
15.22 K | – | 7.118
15.95 K | – | 7.872
16.79 K | – | 8.742
17.63 K | – | 9.598
18.48 K | – | 10.46
19.32 K | – | 11.32
20 K | – | 12.04
20.18 K | – | 12.2
21.37 K | – | 13.46
22.9 K | – | 15.06
24.44 K | – | 16.66
25 K | – | 17.22
25.98 K | – | 18.24
27.53 K | – | 19.75
28.81 K | – | 20.98
30 K | – | 22.12
30.24 K | – | 22.33
31.96 K | – | 23.92
33.85 K | – | 25.59
35 K | – | 26.55
35.75 K | – | 27.18
37.65 K | – | 28.7
39.55 K | – | 30.18
40 K | – | 30.53
41.55 K | – | 31.7
43.65 K | – | 33.27
45 K | – | 34.27
45.75 K | – | 34.79
47.85 K | – | 36.31
49.95 K | – | 37.78
50 K | – | 37.8
52.05 K | – | 39.21
54.16 K | – | 40.59
56.27 K | – | 41.96
58.39 K | – | 43.29
60 K | – | 44.33
60.51 K | – | 44.64
62.64 K | – | 45.97
64.76 K | – | 47.34
66.88 K | – | 48.71
69.01 K | – | 50.1
70 K | – | 50.7
71.24 K | – | 51.62
73.58 K | – | 53.27
75.92 K | – | 55.14
77.87 K | – | 57.21
78.23 K | – | 57.58
78.27 K | – | 57.34
78.34 K | – | 57.57
79.01 K | – | 58.22
79.1 K | – | 58.39
79.23 K | – | 58.44
79.68 K | – | 58.95
79.83 K | – | 59.11
80 K | – | 57.08
80.23 K | – | 59.74
80.33 K | – | 59.84
80.34 K | – | 59.8
80.38 K | – | 59.82
80.93 K | – | 60.61
81.01 K | – | 60.76
81.36 K | – | 61.46
81.48 K | – | 61.53
81.67 K | – | 61.8
82.03 K | – | 62.46
82.27 K | – | 62.81
82.34 K | – | 62.96
82.49 K | – | 63.36
82.57 K | – | 63.46
83 K | – | 64.02
83.12 K | – | 64.33
83.61 K | – | 65.12
83.66 K | – | 65.08
84.19 K | – | 66.18
84.2 K | – | 65.98
84.31 K | – | 66.19
84.72 K | – | 67.2
84.74 K | – | 67.26
84.97 K | – | 67.69
85.28 K | – | 68.9
85.62 K | – | 69.64
85.81 K | – | 71.17
85.82 K | – | 71.29
86.07 K | – | 73.72
86.26 K | – | 73.39
86.33 K | – | 74.69
88.1 K | 61.32 | 62.25
89.48 K | 65.12 | –
89.49 K | 64.37 | –
89.61 K | 64.85 | –
90 K | 62.35 | –
90.04 K | 63.82 | –
90.18 K | 63.5 | –
90.62 K | 63.44 | –
90.78 K | 63.53 | –
90.87 K | 63.45 | –
91.19 K | 63.49 | –
91.32 K | 63.69 | –
91.57 K | 63.46 | –
91.77 K | 63.59 | –
91.97 K | 63.75 | –
92.27 K | 63.73 | –
92.34 K | 63.78 | –
92.92 K | 64.01 | –
92.97 K | 64.05 | –
93.15 K | 64.24 | –
93.36 K | 64.34 | –
93.5 K | 64.26 | –
93.67 K | 64.43 | –
94.08 K | 64.54 | –
94.35 K | 64.76 | –
94.37 K | 64.82 | –
94.67 K | 64.85 | –
95.08 K | 65.12 | –
95.25 K | 65.18 | –
95.42 K | 65.33 | –
95.55 K | 65.34 | –
96.34 K | 65.8 | –
96.44 K | 65.84 | –
96.75 K | 65.99 | –
97.48 K | 66.4 | –
97.95 K | 66.62 | –
98.15 K | 66.74 | –
98.26 K | 66.77 | –
99.15 K | 67.27 | –
99.55 K | 67.5 | –
99.97 K | 67.73 | –
100 K | 67.72 | –
101.8 K | 68.7 | –
101.81 K | 68.72 | –
103.63 K | 69.68 | –
104.26 K | 70.06 | –
105.46 K | 70.68 | –
106.72 K | 71.41 | –
107.3 K | 71.7 | –
109.14 K | 72.73 | –
109.18 K | 72.79 | –
110 K | 73.25 | –
110.98 K | 73.78 | –
111.65 K | 74.18 | –
112.82 K | 74.82 | –
114.12 K | 75.6 | –
114.67 K | 75.87 | –
116.51 K | 76.95 | –
116.6 K | 77.03 | –
118.36 K | 78.04 | –
119.07 K | 78.49 | –
120 K | 78.98 | –
120.2 K | 79.15 | –
121.55 K | 79.98 | –
122.05 K | 80.25 | –
123.9 K | 81.37 | –
124.02 K | 81.49 | –
125.74 K | 82.53 | –
126.49 K | 83.07 | –
127.59 K | 83.73 | –
128.96 K | 84.71 | –
129.43 K | 85.04 | –
130 K | 85.52 | –
131.26 K | 86.38 | –
131.43 K | 86.54 | –
133.1 K | 87.73 | –
133.88 K | 88.39 | –
134.93 K | 89.13 | –
136.33 K | 90.2 | –
136.76 K | 90.46 | –
138.58 K | 91.75 | –
138.78 K | 91.98 | –
140 K | 92.84 | –
140.4 K | 93.1 | –
141.22 K | 93.76 | –
142.22 K | 94.49 | –
143.66 K | 95.62 | –
144.04 K | 95.9 | –
145.85 K | 97.31 | –
146.09 K | 97.56 | –
147.65 K | 98.82 | –
148.5 K | 99.58 | –
149.45 K | 100.3 | –
150 K | 100.8 | –
150.92 K | 101.6 | –
151.37 K | 102 | –
153.32 K | 103.8 | –
153.4 K | 103.9 | –
155.42 K | 105.7 | –
155.71 K | 106 | –
157.44 K | 107.7 | –
158.09 K | 108.4 | –
159.45 K | 109.7 | –
160 K | 110.3 | –
160.45 K | 110.8 | –
161.45 K | 111.8 | –
162.8 K | 113.2 | –
163.44 K | 113.9 | –
165.14 K | 115.7 | –
165.42 K | 116 | –
167.39 K | 118.2 | –
167.47 K | 118.3 | –
